Measured values taken from patent US10189838B2, “Aza-oxo-indoles for the treatment and prophylaxis of respiratory syncytial virus infection” (Hoffmann-La Roche Inc., priority 2013, dated 2019).
pEC50: −log10 of the molar value.

The molecules below were run on RSV Long strain (assay: Viral cytopathic effect (CPE) assay, RSV Long strain). Settings: human respiratory syncytial virus, 144 h, cell viability after 6 days (Cell Counting kit-8).
Assay type: cell-based, Respiratory Syncytial Virus
Experimental: EC50: the concentration of a compound where 50% of its maximal protection effect against viral induced CPE is observed
LongStrain: an A subtype RSV strain obtained from ATCC with catalog number VR-26
To measure anti-RSV activity of compounds, 96-well plates are seeded with 6×10^3 cells per well in Dulbecco's modified Eagle's medium (DMEM) containing 10% fetal bovine serum (FBS). Cells are infected the next day with sufficient RSV Long strain (ATCC) to produce an approximately 80-90% cytopathic effect after 6 days, in the presence of serial half-log diluted compound in a total volume of […] per well. The viability of cells is assessed after 6 days using Cell Counting kit-8 (Dojindo Molecular Technologies). The absorbance at 450 nm and referenced at 630 nm is measured to determine 50% effective concentration (EC50)
For O=C1N(Cc2cc3cc(Cl)ccc3n2CCCN2CC[C@@H](O)C2)c2cnccc2C12CC2 [Example 21, 1′-[(5-Chloro-1-{3-[(3R)-3-hydroxypyrrolidin-1-yl]propyl}-1H-indol-2-yl)methyl]spiro[cyclopropane-1,3′-pyrrolo[2,3-c]pyridin]-2′(1′H)-one], the pEC50 was 6.26. Work on O=C1N(Cc2cc3cc(Cl)ncc3n2CCC2CSC2)c2cnccc2C12CC2 [Example 4-10, 1′-({5-Chloro-1[2-(thietan-3-yl)ethyl]-1H-pyrrolo[2,3-c]pyridin-2-yl}methyl)spiro[cyclopropane-1,3′-pyrrolo[2,3-c]pyridin]-2′(1′H)-one] yielded a pEC50 of 7.13. Work on O=C1N(Cc2cc3cc(Cl)ccc3n2CCCS(=O)(=O)N2CCNCC2)c2cnccc2C12CC2 [Example 24-2, 1′-({5-Chloro-1-[3-(piperazin-1-ylsulfonyl)propyl]-1H-indol-2-yl}methyl)spiro[cyclopropane-1,3′-pyrrolo[2,3-c]pyridin]-2′(1′H)-one] yielded a pEC50 of 7.82. Work on O=C1N(Cc2cc3cc(Cl)ccc3n2CCCNCCO)c2cnccc2C12CC2 [Example 29, 1′-[(5-Chloro-1-{3-[(2-hydroxyethyl)amino]propyl}-1H-indol-2-yl)methyl]spiro[cyclopropane-1,3′-pyrrolo[2,3-c]pyridin]-2′(1′H)-one] yielded a pEC50 of 6.61. Molecule CS(=O)(=O)c1ccc(Cn2c(CN3C(=O)C4(CC4)c4ccncc43)cc3cc(Cl)ccc32)cc1 [Example 4-2, 1′-({5-Chloro-1-[4-(methylsulfonyl)benzyl]-1H-indol-2-yl}methyl)spiro[cyclopropane-1,3′-pyrrolo[2,3-c]pyridin]-2′(1′H)-one] has a pEC50 of 6.56. In the case of O=C1N(Cc2nc3cc(Cl)ccc3n2CC2COC2)c2cnccc2C12CC2 [Example 38-1, 1′-{[5-Chloro-1-(oxetan-3-ylmethyl)-1H-benzimidazol-2-yl]methyl}spiro[cyclopropane-1,3′-pyrrolo[2,3-c]pyridin]-2′(1′H)-one], the pEC50 was 8.52. With CS(=N)(=O)CCCCn1c(CN2C(=O)C3(CC3)c3ccncc32)cc2cc(Cl)cnc21 (centres unmarked) [Example 14-3, 1′-({5-Chloro-1-[4-(S-methylsulfonimidoyl)butyl]-1H-pyrrolo[2,3-b]pyridin-2-yl}methyl)spiro[cyclopropane-1,3′-pyrrolo[2,3-c]pyridin]-2′(1′H)-one] the pEC50 was 7.13. Work on CCS(=O)(=O)CCc1c(CN2C(=O)C3(CC3)c3cccnc32)[nH]c2cc(Cl)ccc12 [Example 32-1, 1′-({6-Chloro-3-[2-(ethylsulfonyl)ethyl]-1H-indol-2-yl}methyl)spiro[cyclopropane-1,3′-pyrrolo[2,3-b]pyridin]-2′(1′H)-one] yielded a pEC50 of 8.05. In the case of O=C1N(Cc2cc3cc(Cl)ncc3n2CCC2CS(=O)(=O)C2)c2cnccc2C12CC2 [Example 4-11, 1′-({5-Chloro-1-[2-(1,1-dioxidothietan-3-yl)ethyl]-1H-pyrrolo[2,3-c]pyridin-2-yl}methyl)spiro[cyclopropane-1,3′-pyrrolo[2,3-c]pyridin]-2′(1′H)-one], the pEC50 was 7.74. CNS(=O)(=O)CCCn1c(CN2C(=O)C3(CC3)c3ccncc32)cc2cc(Cl)ccc21 [Example 25-2, 3-{5-Chloro-2-[(2′-oxospiro[cyclopropane-1,3′-pyrrolo[2,3-c]pyridin]-1′(2′H)-yl)methyl]-1H-indol-1-yl}-N-methylpropane-1-sulfonamide] was tested, and the pEC50 was 7.96. CS(=O)(=O)CCn1c(CN2C(=O)C3(CC3)c3ccncc32)cc2cccc(Cl)c21 [Example 1-7, 1′-({7-Chloro-1-[2-(methylsulfonyl)ethyl]-1H-indol-2-yl}methyl)spiro[cyclopropane-1,3′-pyrrolo[2,3-c]pyridin]-2′(1′H)-one] showed a pEC50 of 6.79. Work on CCS(=O)(=O)CCCn1c(CN2C(=O)C3(CC3)c3ccncc32)cc2cc(Cl)cnc21 [Example 23, 1′-({5-Chloro-1-[3-(ethylsulfonyl)propyl]-1H-pyrrolo[2,3-b]pyridin-2-yl}methyl)spiro[cyclopropane-1,3′-pyrrolo[2,3-c]pyridin]-2′(1′H)-one] yielded a pEC50 of 7.20. CS(=O)(=O)CCn1c(CN2C(=O)C3(CC3)c3ccncc32)cc2ccccc21 [Example 1-1, 1′-({1-[2-(Methylsulfonyl)ethyl]-1H-indol-2-yl}methyl)spiro[cyclopropane-1,3′-pyrrolo[2,3-c]pyridin]-2′(1′H)-one] gave a pEC50 of 6.66. In the case of CS(=O)(=O)CCn1c(CN2C(=O)C3(CC3)c3ccncc32)cc2c(Cl)cccc21 [Example 1-6, 1′-({4-Chloro-1-[2-(methylsulfonyl)ethyl]-1H-indol-2-yl}methyl)spiro[cyclopropane-1,3′-pyrrolo[2,3-c]pyridin]-2′(1′H)-one], the pEC50 was 5.78. Work on CS(=O)(=O)CCn1c(CN2C(=O)C3(CC3)c3cnccc32)cc2cc(Cl)ccc21 [Example 3-1, 1′-({5-Chloro-1-[2-(methylsulfonyl)ethyl]-1H-indol-2-yl}methyl)spiro[cyclopropane-1,3′-pyrrolo[3,2-c]pyridin]-2′(1′H)-one] yielded a pEC50 of 6.70. O=C1N(Cc2cc3cc(Cl)ccc3n2CCCN2CCS(=O)(=O)CC2)c2cnccc2C12CC2 [Example 7-9, 1′-({5-Chloro-1-[3-(1,1-dioxidothiomorpholin-4-yl)propyl]-1H-indol-2-yl}methyl)spiro[cyclopropane-1,3′-pyrrolo[2,3-c]pyridin]-2′(1′H)-one] gave a pEC50 of 6.10. For C[S+]([O-])CCCn1c(CN2C(=O)C3(CC3)c3ccncc32)cc2cc(Cl)ccc21 (centres unmarked) [Example 5-1, 1′-({5-Chloro-1-[3-(methylsulfinyl)propyl]-1H-indol-2-yl}methyl)spiro[cyclopropane-1,3′-pyrrolo[2,3-c]pyridin]-2′(1′H)-one], the pEC50 was 8.05. Work on Cc1cnc2c(c1)cc(CN1C(=O)C3(CC3)c3ccncc31)n2CCS(C)(=O)=O [Example 4-4, 1′-({5-Methyl-1-[2-(methylsulfonyl)ethyl]-1H-pyrrolo[2,3-b]pyridin-2-yl}methyl)spiro[cyclopropane-1,3′-pyrrolo[2,3-c]pyridin]-2′(1′H)-one] yielded a pEC50 of 7.19. For CS(=O)(=O)CCn1c(CN2C(=O)C3(CC3)c3ccncc32)cc2cc(F)c(F)cc21 [Example 1-11, 1′-({5,6-Difluoro-1-[2-(methylsulfonyl)ethyl]-1H-indol-2-yl}methyl)spiro[cyclopropane-1,3′-pyrrolo[2,3-c]pyridin]-2′(1′H)-one], the pEC50 was 6.03. Cc1ccc2c(c1)cc(CN1C(=O)C3(CC3)c3ccncc31)n2CCS(C)(=O)=O [Example 1-13, 1′-({5-Methyl-1-[2-(methylsulfonyl)ethyl]-1H-indol-2-yl}methyl)spiro[cyclopropane-1,3′-pyrrolo[2,3-c]pyridin]-2′(1′H)-one] was tested, and the pEC50 was 8.05. In the case of COc1ccc2c(c1)cc(CN1C(=O)C3(CC3)c3ccncc31)n2CCS(C)(=O)=O [Example 1-2, 1′-({5-Methoxy-1-[2-(methylsulfonyl)ethyl]-1H-indol-2-yl}methyl)spiro[cyclopropane-1,3′-pyrrolo[2,3-c]pyridin]-2′(1′H)-one], the pEC50 was 7.13. NS(=O)(=O)CCCn1c(CN2C(=O)C3(CC3)c3ccncc32)cc2cc(Cl)cnc21 [Example 25-3, 3-{5-Chloro-2-[(2′-oxospiro[cyclopropane-1,3′-pyrrolo[2,3-c]pyridin]-1′(2′H)-yl)methyl]-1H-pyrrolo[2,3-b]pyridin-1-yl}propane-1-sulfonamide] showed a pEC50 of 7.39. CN(C(=O)CCn1c(CN2C(=O)C3(CC3)c3ccncc32)cc2cc(Cl)ccc21)S(C)(=O)=O [Example 19-3, 3-{5-Chloro-2-[(2′-oxospiro[cyclopropane-1,3′-pyrrolo[2,3-c]pyridin]-1′(2′H)-yl)methyl]-1H-indol-1-yl}-N-methyl-N-(methylsulfonyl)propanamide] was tested, and the pEC50 was 7.33. For CS(=O)(=O)CCCCn1c(CN2C(=O)C3(CC3)c3ccncc32)cc2cc(Cl)ccc21 [Example 4-1, 1′-({5-Chloro-1-[4-(methylsulfonyl)butyl]-1H-indol-2-yl}methyl)spiro[cyclopropane-1,3′-pyrrolo[2,3-c]pyridin]-2′(1′H)-one], the pEC50 was 8.23. Molecule CCS(=O)(=O)CCn1c(CN2C(=O)C3(CC3)c3ccncc32)cc2cc(Cl)cnc21 [Example 2-2, 1′-({5-Chloro-1-[2-(ethylsulfonyl)ethyl]-1H-pyrrolo[2,3-b]pyridin-2-yl}methyl)spiro[cyclopropane-1,3′-pyrrolo[2,3-c]pyridin]-2′(1′H)-one] has a pEC50 of 7.72. Work on CS(=O)(=O)CCn1c(CN2C(=O)C3(CCC3)c3ccncc32)cc2cc(Cl)cnc21 [Example 2-4, 1′-({5-Chloro-1-[2-(methylsulfonyl)ethyl]-1H-pyrrolo[2,3-b]pyridin-2-yl}methyl)spiro[cyclobutane-1,3′-pyrrolo[2,3-c]pyridin]-2′(1′H)-one] yielded a pEC50 of 7.54. O=C1N(Cc2cc3cc(Cl)ncc3n2CCCS(=O)(=O)C2CC2)c2cnccc2C12CC2 [Example 4-9, 1′-({5-Chloro-1-[3-(cyclopropylsulfonyl)propyl]-1H-pyrrolo[2,3-c]pyridin-2-yl}methyl)spiro[cyclopropane-1,3′-pyrrolo[2,3-c]pyridin]-2′(1′H)-one] showed a pEC50 of 7.31. Work on CS(=O)(=O)CCn1c(CN2C(=O)C3(CC3)c3ccncc32)cc2cc(C(F)(F)F)ccc21 [Example 1-10, 1′-({1-[2-(Methylsulfonyl)ethyl]-5-(trifluoromethyl)-1H-indol-2-yl}methyl)spiro[cyclopropane-1,3′-pyrrolo[2,3-c]pyridin]-2′(1′H)-one] yielded a pEC50 of 6.25. Molecule O=C1N(Cc2nc3cc(Cl)ccc3n2CCS(=O)(=O)C2CC2)c2cnccc2C12CC2 [Example 36-2, 1′-({5-Chloro-1-[2-(cyclopropylsulfonyl)ethyl]-1H-benzimidazol-2-yl}methyl)spiro[cyclopropane-1,3′-pyrrolo[2,3-c]pyridin]-2′(1′H)-one] has a pEC50 of 8.10.
